Data on 18 compounds can be found in ChEMBL document CHEMBL3045663, “Synthesis and Activity of Novel Acaricidal/Insecticidal 2, 4-Diphenyl-1, 3-oxazolines” (J Pestic Sci, 2002).

Converted amounts (≈) assume the structure as drawn.

Format in all cases: functional
One assay concerns Myzus persicae. The assay is described as follows: Insecticidal activity against Myzus persicae (green peach aphid) in compound treated radish leaf assessed as mortality at 500 ppm.
The test system of the next assay is Plutella xylostella. Kind of assay: Insecticidal activity against Plutella xylostella (diamondback moth) in compound treated radish leaf assessed as mortality at 500 ppm.
The next assay relates to Nephotettix cincticeps. Kind of assay: Insecticidal activity against Nephotettix cincticeps (green rice leafhopper) in compound treated rice seedlings assessed as mortality at 500 ppm.
The next assay deals with Tetranychus urticae. Kind of assay: Acaricidal activity against Tetranychus urticae (two-spotted spider mite) in compound treated kidney bean leaf assessed as larvicidal activity.

In the case of `CCOc1cc(Br)ccc1C1COC(c2c(F)cccc2F)=N1` (configuration not stated), the mortality at 500 ppm in the assay on Myzus persicae is 0%; in the assay with Plutella xylostella, 10%; in the assay with Nephotettix cincticeps it was 100%. The LC50 in the assay on Tetranychus urticae was 0.1 µg/mL (≈ 0.262 µM).
As for `Cc1ccc(C2COC(c3c(F)cccc3F)=N2)cc1C` (configuration not stated), the mortality at 500 ppm with Myzus persicae came out at 100%; in the assay with Plutella xylostella it was 0%; in the assay on Nephotettix cincticeps, 85%. Besides, the LC50 with Tetranychus urticae was found to be 1 µg/mL (≈ 3.48 µM).
The matching figures for `CCCCCCc1ccc(C2COC(c3c(F)cccc3F)=N2)cc1F` (configuration not stated): 0%, 0%, 0% and 0.1 µg/mL (≈ 0.277 µM).
With `CCCCCCc1ccc(C2COC(c3c(F)cccc3F)=N2)cc1Cl` (configuration not stated), the mortality at 500 ppm with Myzus persicae, with Plutella xylostella and in the assay on Nephotettix cincticeps was 0% throughout. For the same compound, in the assay with Tetranychus urticae, the LC50 amounted to 0.1 µg/mL (≈ 0.265 µM).
For the compound `Fc1ccc(C2COC(c3c(F)cccc3F)=N2)cc1F` (configuration not stated), the mortality at 500 ppm in the assay with Myzus persicae, in the assay with Plutella xylostella and in the assay with Nephotettix cincticeps was 0% throughout. Further, the LC50 in the assay on Tetranychus urticae stood at 0.1 µg/mL (≈ 0.339 µM).
`Fc1ccc(C2COC(c3c(F)cccc3F)=N2)cc1Cl` (configuration not stated): the figures for the mortality at 500 ppm in the assay on Myzus persicae, in the assay on Plutella xylostella and in the assay on Nephotettix cincticeps were 100%, 60% and 10%, respectively. In addition, in the assay with Tetranychus urticae, the LC50 is 0.1 µg/mL (≈ 0.321 µM).
`Fc1cc(C2COC(c3c(F)cccc3F)=N2)ccc1Cl` (configuration not stated): the mortality at 500 ppm in the assay on Myzus persicae turned out to be 100%; in the assay with Plutella xylostella, 35%; in the assay with Nephotettix cincticeps, 60%. The LC50 with Tetranychus urticae is 0.01 µg/mL (≈ 0.0321 µM).
As for `Fc1cccc(F)c1C1=NC(c2ccc(Cl)c(Cl)c2)CO1` (configuration not stated), the mortality at 500 ppm in the assay on Myzus persicae was determined as 100%; with Plutella xylostella, 60%; with Nephotettix cincticeps, 0%. The LC50 in the assay with Tetranychus urticae is 0.1 µg/mL (≈ 0.305 µM).
The like results for `COc1cc(F)ccc1C1COC(c2c(F)cccc2F)=N1` (configuration not stated) were, in that order, 100%, 10%, 100% and 0.1 µg/mL (≈ 0.325 µM).
In the case of `CCOc1cc(F)ccc1C1COC(c2c(F)cccc2F)=N1` (configuration not stated), the mortality at 500 ppm in the assay with Myzus persicae was found to be 100%; in the assay on Plutella xylostella it was 85%; in the assay on Nephotettix cincticeps, 100%. In the assay with Tetranychus urticae, the LC50 worked out at 0.001 µg/mL (≈ 0.00311 µM).
As for `CCCCOc1cc(F)ccc1C1COC(c2c(F)cccc2F)=N1` (configuration not stated), the mortality at 500 ppm in the assay with Myzus persicae came to 60%; in the assay on Plutella xylostella, 85%; in the assay with Nephotettix cincticeps it was 100%. Moreover, the LC50 in the assay with Tetranychus urticae was < 0.001 µg/mL.
Consider `Fc1ccc(C2COC(c3c(F)cccc3F)=N2)c(F)c1` (configuration not stated), for which the figures for the mortality at 500 ppm in the assay with Myzus persicae, in the assay on Plutella xylostella and in the assay with Nephotettix cincticeps were 100%, 85% and 35%, respectively. Besides, the LC50 in the assay on Tetranychus urticae worked out at 0.01 µg/mL (≈ 0.0339 µM).
As to `Fc1ccc(C2COC(c3c(F)cccc3F)=N2)c(Cl)c1` (configuration not stated), the values for the mortality at 500 ppm in the assay on Myzus persicae, with Plutella xylostella and in the assay on Nephotettix cincticeps were 100%, 0% and 35%, respectively. The 50% lethal concentration (LC50) with Tetranychus urticae turned out to be 0.1 µg/mL (≈ 0.321 µM).
Consider `Cc1cc(Cl)ccc1C1COC(c2c(F)cccc2F)=N1` (configuration not stated), for which the mortality at 500 ppm was 100% with Myzus persicae, 10% in the assay with Plutella xylostella and 35% in the assay on Nephotettix cincticeps. Moreover, the LC50 in the assay on Tetranychus urticae stood at 0.1 µg/mL (≈ 0.325 µM).
As for `COc1cc(Cl)ccc1C1COC(c2c(F)cccc2F)=N1` (configuration not stated), the results for the mortality at 500 ppm in the assay with Myzus persicae, with Plutella xylostella and in the assay with Nephotettix cincticeps were 100%, 10% and 100%, respectively. In addition, the LC50 in the assay with Tetranychus urticae is 0.1 µg/mL (≈ 0.309 µM).
For `CCOc1cc(Cl)ccc1C1COC(c2c(F)cccc2F)=N1` (configuration not stated), the mortality at 500 ppm with Myzus persicae, in the assay on Plutella xylostella and in the assay with Nephotettix cincticeps was 100% throughout. In addition, in the assay on Tetranychus urticae, the LC50 was found to be 0.1 µg/mL (≈ 0.296 µM).
In the case of `Fc1cc(Cl)ccc1C1COC(c2c(F)cccc2F)=N1` (configuration not stated), the mortality at 500 ppm was 100% in the assay on Myzus persicae, 0% with Plutella xylostella and 0% in the assay on Nephotettix cincticeps. For the same compound, in the assay with Tetranychus urticae, the LC50 was < 0.001 µg/mL.
With `Fc1cccc(F)c1C1=NC(c2ccc(Cl)cc2Cl)CO1` (configuration not stated), the mortality at 500 ppm was 100% with Myzus persicae, 60% with Plutella xylostella and 60% in the assay on Nephotettix cincticeps. In addition, the LC50 with Tetranychus urticae came to 0.01 µg/mL (≈ 0.0305 µM).
